Experiment: Human HepG2 cell viability assay in 384 well format
Format: toxicity, cell-based
Parameters: dose 125 nL, time 70.5 hour; cytotoxicity at 70.5 h: concentration not given beside the values
Conditions: HepG2 cells, read-out: Inhibition

O=C(c1ccc[nH]1)N1CCC2(CC1)COCCN(c1nccs1)C2
cytotoxicity at 70.5 h: -1.47%

CN1CC[C@]2(CN(C(=O)[C@H]3CCCO3)C[C@H]2c2ccccc2)C1=O
cytotoxicity at 70.5 h: -2.45%

O=S(=O)(C1CC1)N1CCn2c(Cn3cccn3)cnc2C1
cytotoxicity at 70.5 h: -1.3%

Cc1csc(CN2CC[C@H]3C(=O)N(c4cccnc4)CCO[C@H]3C2)n1
cytotoxicity at 70.5 h: 11%

N#Cc1cccc(N2CCCC3(CN(C(=O)NC4CC4)CCO3)C2)c1 (stereo not drawn)
cytotoxicity at 70.5 h: -1.09%

CCS(=O)(=O)N1Cc2c(Cn3cccc3)nn(C(C)C)c2C1
cytotoxicity at 70.5 h: -2.77%

Cc1ccc(N2CC3(CCN(S(=O)(=O)C4CC4)C3)C2)nn1
cytotoxicity at 70.5 h: -5.86%

CCS(=O)(=O)N1CCC2(CC1)CC[C@@]1(C(=O)N(C)C)CN(C(C)=O)C[C@@H]21
cytotoxicity at 70.5 h: 13.5%

COCCN1C(=O)C2(CCC(C(=O)Nc3ccc(C)cc3)CC2)N=C1C (stereo not drawn)
cytotoxicity at 70.5 h: 10.5%

O=C(NCC1CC[C@@]2(CNCCOC2)O1)c1cnccn1 (stereo partly drawn)
cytotoxicity at 70.5 h: 27.6%

CNC(=O)[C@H]1C[C@@H]2CN(c3cc(OC)ncn3)C[C@@H]2N1C(C)C
cytotoxicity at 70.5 h: 15.2%

COCC(=O)N1CC[C@H]2[C@H]1CCN2CC(C)C
cytotoxicity at 70.5 h: -12.6%

CNC(=O)[C@@H]1COC[C@H]2CN(C(=O)c3ccc(C)c(C)c3)C[C@H]21
cytotoxicity at 70.5 h: -7.79%

Cc1cc(C)cc(CN2C[C@@H]3OCCN(S(=O)(=O)N(C)C)[C@@H]3C2)c1
cytotoxicity at 70.5 h: -5.73%

CCc1ccc(C(=O)N2C[C@@H]3COC[C@@H](C(=O)NC)[C@@H]3C2)cc1
cytotoxicity at 70.5 h: -0.591%

CCOCc1cncc2c1CCN(C(=O)c1cccc(C#N)c1)C2
cytotoxicity at 70.5 h: -1.85%

COc1cccc(CN2C[C@H]3CCNCC[C@H]3S2(=O)=O)c1
cytotoxicity at 70.5 h: 18.8%

CC(C)NC(=O)N1CCN(C(=O)C2CCOCC2)CC2(CNC(=O)C2)C1 (stereo not drawn)
cytotoxicity at 70.5 h: -16%

c1ccc(CO[C@H]2CO[C@@]3(CCCN(Cc4ccncc4)C3)C2)nc1
cytotoxicity at 70.5 h: -16.2%

O=c1cc(Cn2ccnc2)nc2n1CCCN(Cc1cccs1)C2
cytotoxicity at 70.5 h: -16.6%

O=C(c1ccc[nH]1)N1CCOCC2(CCN(C3CCOCC3)C2)C1 (stereo not drawn)
cytotoxicity at 70.5 h: -19%

N#Cc1cccc(N2CCCC3(C2)CN(c2nncs2)CCO3)c1 (stereo not drawn)
cytotoxicity at 70.5 h: 14%

CS(=O)(=O)NC[C@]12COC[C@H]1CN(C(=O)c1ncccn1)C2
cytotoxicity at 70.5 h: 17.4%

Cc1ccc(S(=O)(=O)N2Cc3c(CN(C)C)nn(C)c3C2)cc1
cytotoxicity at 70.5 h: 3.97%

CN(C)Cc1nn(C)c2c1CN(S(=O)(=O)c1ccccc1F)C2
cytotoxicity at 70.5 h: -0.163%

O=C1CCCN1CC1CN(C(=O)C2CCOCC2)Cc2nccn2C1 (stereo not drawn)
cytotoxicity at 70.5 h: -1.66%

Cn1cc(C[C@H]2[C@H](O)CCN2C(=O)C2CCCC2)cn1
cytotoxicity at 70.5 h: -2.64%

CN(Cc1cn2c(n1)CN(C(=O)C1CCOCC1)CC2)Cc1ccco1
cytotoxicity at 70.5 h: -1.65%

CS(=O)(=O)N1Cc2nccn2CC(CN2CCCC2=O)C1 (stereo not drawn)
cytotoxicity at 70.5 h: 1.5%

Cc1ccoc1C(=O)N1CC(C(=O)NCC2CC2)C2(CCOCC2)C1 (stereo not drawn)
cytotoxicity at 70.5 h: 1.52%

Cc1cccc(S(=O)(=O)N2Cc3c(CN(C)C)nn(C)c3C2)c1
cytotoxicity at 70.5 h: 2.96%

Cc1ccsc1C(=O)N1CCn2cnc(COCC3CC3)c2C1
cytotoxicity at 70.5 h: -4.7%

Cc1ncsc1CN1CC[C@H]2OCC[C@@]2(C(=O)N(C)C)C1
cytotoxicity at 70.5 h: -3.45%

Cn1cc(C[C@H]2[C@H](O)CCN2C(=O)C2CCOCC2)cn1
cytotoxicity at 70.5 h: -7.24%

Cc1ncsc1CN1CC[C@H]2OCC[C@@]2(C(=O)NCC2CC2)C1
cytotoxicity at 70.5 h: -3.48%

O=C1COC2(CCN(Cc3ccncc3)CC2)CN1CC1CC1
cytotoxicity at 70.5 h: 4.04%

CCn1cc2c(n1)C(COC)CN(C(=O)COc1ccccc1)C2 (stereo not drawn)
cytotoxicity at 70.5 h: 6.15%

COc1ccccc1OCC(=O)N1CCC[C@]2(C[C@@H](OC)CO2)C1
cytotoxicity at 70.5 h: 10.6%

Cc1csc([C@@H]2C[C@@H]3CCN(C(=O)c4cnccn4)C[C@H]3O2)n1
cytotoxicity at 70.5 h: -4.76%

Cn1ccnc1CN1CCC2(CC1)CC(Nc1ccccn1)CO2 (stereo not drawn)
cytotoxicity at 70.5 h: -2.46%

CCC1=N[C@@]2(CC[C@@H]3CN(S(=O)(=O)CC(C)C)C[C@@H]32)C(=O)N1CC
cytotoxicity at 70.5 h: 1.37%

Cc1ccsc1C(=O)N1CC(C(=O)NC(C)C)C2(CCOCC2)C1 (stereo not drawn)
cytotoxicity at 70.5 h: 1.65%

O=C1CCC2(CCCN(c3ncc(F)cn3)CC2)N1Cc1ccccc1 (stereo not drawn)
cytotoxicity at 70.5 h: 1.63%

O=C(c1c[nH]cn1)N1CCCn2c(nnc2Cn2cccc2)C1
cytotoxicity at 70.5 h: -1.3%

Cc1ccccc1OCC(=O)N1CC[C@]2(C[C@@H](OCC3CC3)CO2)C1
cytotoxicity at 70.5 h: -1.4%

CN(C)S(=O)(=O)N1C[C@@H](OCc2ccccn2)[C@H]2OCCC[C@H]21
cytotoxicity at 70.5 h: -3.83%

Cn1ncc2c1C(COCC1CC1)CN(Cc1cccnc1)C2 (stereo not drawn)
cytotoxicity at 70.5 h: -4.66%

COc1ccc(CN2Cc3cnn(C)c3C(COCC3CC3)C2)cc1 (stereo not drawn)
cytotoxicity at 70.5 h: -1.5%

COCC1CN(C(=O)C2=CCCC2)Cc2cnn(CC3CC3)c21 (stereo not drawn)
cytotoxicity at 70.5 h: -2.82%

Cc1cnc(C(=O)N2CC[C@H]3C[C@@H](c4nc(C)cs4)O[C@@H]3C2)cn1
cytotoxicity at 70.5 h: 7.61%

O=C(Cc1ccccc1)N1CCn2cc(Cn3cncn3)nc2C1
cytotoxicity at 70.5 h: 9.06%

CO[C@H]1CC[C@H]2[C@H]1OCCN2C(=O)C1=CCCC1
cytotoxicity at 70.5 h: 9.7%

Cn1nc(C#N)c2c1CN(C(=O)c1ccco1)CCC2
cytotoxicity at 70.5 h: 14.2%

COCC1CC2(CCN(C(=O)c3ccc(F)c(Cl)c3)CC2)CO1 (stereo not drawn)
cytotoxicity at 70.5 h: 13%

O=C(c1cnccn1)N1CCC2(CCCN(Cc3ccoc3)C2)C1 (stereo not drawn)
cytotoxicity at 70.5 h: 11.3%

O=S(=O)(C1CC1)N1CCC2(CC1)CC(Oc1ccccn1)CO2 (stereo not drawn)
cytotoxicity at 70.5 h: 2.03%

O=C(NCC1CCC2(CCNCC2)CO1)c1cnccn1 (stereo not drawn)
cytotoxicity at 70.5 h: 9.23%

N#Cc1ccccc1N1CC2(CCCCN2CC2CC2)CC1=O (stereo not drawn)
cytotoxicity at 70.5 h: 7.89%

NC(=O)c1nc2c(s1)CCN(Cc1ccccc1)CC2
cytotoxicity at 70.5 h: -2.47%

CCN(CC)C(=O)c1nc2c(s1)CCN(Cc1cccc(OC)c1)CC2
cytotoxicity at 70.5 h: -11.2%

COCC(=O)N1CCc2ccc(=O)n(Cc3csc(C)n3)c2CC1
cytotoxicity at 70.5 h: -6.47%

CCCN1CCCn2c(nc(CNC(=O)c3nccn3C)cc2=O)C1
cytotoxicity at 70.5 h: -9.48%

Cn1ccnc1C(=O)N1CCC2(CCCN2CC2CC2)CC1
cytotoxicity at 70.5 h: -7.19%

CCCN1CCCn2c(nc(CNC(=O)N3CCCC3)cc2=O)C1
cytotoxicity at 70.5 h: -9.21%

COc1cccc(CN2CCc3nc(C(=O)NCC(C)C)sc3CC2)c1
cytotoxicity at 70.5 h: 10.6%

CS(=O)(=O)N1C[C@H]2CCCN(Cc3nccs3)[C@H]2C1
cytotoxicity at 70.5 h: 14.5%

CNC(=O)CC1CC2(CCN(c3ncccn3)CC2)c2ccccc21 (stereo not drawn)
cytotoxicity at 70.5 h: -6.77%

Cn1cc(CN2CCC3(CC2)C(=O)Nc2ccccc23)cn1
cytotoxicity at 70.5 h: -6.51%

COc1ccc(CN2C[C@H](N3CCCC3=O)[C@@H]3OCCC[C@@H]32)cc1
cytotoxicity at 70.5 h: -7%

Cn1cc(CN2C[C@@H]3CCCO[C@@H]3[C@H](N3CCCC3=O)C2)cn1
cytotoxicity at 70.5 h: -4.04%

Cc1cccc(CN2C[C@@H]3OCCN(S(=O)(=O)N(C)C)[C@@H]3C2)c1
cytotoxicity at 70.5 h: -2.05%

CC(C)N1CCc2c(c(COc3cncnc3)nn2CC2CC2)C1
cytotoxicity at 70.5 h: -3.91%

CNC(=O)CN1CCOCC2(C1)CN(C(=O)C(C)C)CCO2 (stereo not drawn)
cytotoxicity at 70.5 h: -9.58%

O=C([C@@H]1CCO[C@@H]2CCN(Cc3cccs3)C[C@H]21)N1CCCCO1
cytotoxicity at 70.5 h: -18.4%

COCCN1CC[C@H]2OCC[C@@H](C(=O)N3CCCO3)[C@H]2C1
cytotoxicity at 70.5 h: 47%

COc1ccccc1CN1CC[C@H]2C[C@H](C(=O)N3CCCC3)O[C@H]2C1
cytotoxicity at 70.5 h: 15.4%

Cc1cccc(C(=O)N2CC(C(=O)NCC3CC3)C3(CCOCC3)C2)n1 (stereo not drawn)
cytotoxicity at 70.5 h: -2.96%

COCCNC(=O)[C@@]12CCO[C@@H]1CCN(Cc1scnc1C)C2
cytotoxicity at 70.5 h: -2.1%

CCS(=O)(=O)N1C[C@@H]2CN(Cc3cnn(C)c3)CCO[C@@H]2C1
cytotoxicity at 70.5 h: 2.4%

CCCS(=O)(=O)N1C[C@@H]2CN(Cc3cnn(C)c3)CCO[C@@H]2C1
cytotoxicity at 70.5 h: -1.12%

COCC1CN(C(=O)COc2ccc(C)cc2)Cc2cn(C)nc21 (stereo not drawn)
cytotoxicity at 70.5 h: -2.9%

Cc1occc1C(=O)N1C[C@@H]2[C@@H](C1)OCC(=O)N2Cc1cccnc1
cytotoxicity at 70.5 h: -2.83%

O=C(NCC1OCCc2cn(CC3CCOCC3)nc21)c1ccsc1 (stereo not drawn)
cytotoxicity at 70.5 h: 5%

O=C(O)[C@]12CCCN(Cc3ccsc3)C[C@H]1CN(c1ncccn1)C2
cytotoxicity at 70.5 h: 1.99%

c1cc2c(cc1CN1C[C@@H]3COC[C@@H](N4CCCC4)[C@@H]3C1)OCO2
cytotoxicity at 70.5 h: -6.89%

CN(C)C(=O)CN1CCOCC2(CCN(CC3CCOC3)CC2)C1 (stereo not drawn)
cytotoxicity at 70.5 h: 15.1%

Cn1nc(Cn2ccnc2)c2c1CN(c1nccs1)C2
cytotoxicity at 70.5 h: -5.95%

Cn1cc(CN2C[C@H](N3CCOCC3)[C@@H]3OCCC[C@@H]32)cn1
cytotoxicity at 70.5 h: -4.71%

Cc1ccc(CN2CC[C@]3(C[C@H](OCc4ccccn4)CO3)C2)o1
cytotoxicity at 70.5 h: -18.4%

CCS(=O)(=O)NC[C@]12COC[C@H]1CN(Cc1cccnc1OC)C2
cytotoxicity at 70.5 h: -19.9%

O=C(Nc1cccnc1)[C@H]1CN(C2CCCC2)C[C@H]2OCC[C@@H]12
cytotoxicity at 70.5 h: -2.64%

CN1CC(=O)N(c2ccccc2)CC12CCN(Cc1nccn1C)C2 (stereo not drawn)
cytotoxicity at 70.5 h: 4.89%

CN1CC(=O)N(c2cccc(F)c2)CC12CCN(Cc1cncn1C)C2 (stereo not drawn)
cytotoxicity at 70.5 h: -4.15%

CN1CC(=O)N(c2cccc(F)c2)CC12CCN(Cc1nccs1)C2 (stereo not drawn)
cytotoxicity at 70.5 h: -1.43%

Cn1ccnc1CN1CCC2(CC1)CN(Cc1cccnc1)C(=O)CO2
cytotoxicity at 70.5 h: -5.54%

Cn1cc(CN2CCO[C@@H]3CN(Cc4ccoc4)C[C@@H]3C2)cn1
cytotoxicity at 70.5 h: -0.642%

O=C(c1c[nH]cn1)N1CCCn2c(CN3CCCCC3)nnc2C1
cytotoxicity at 70.5 h: -1.43%

O=C(O)[C@]12CCCN(Cc3ccsc3)C[C@H]1CN(c1ccccn1)C2
cytotoxicity at 70.5 h: 13.5%

Cc1ccc2c(n1)N(CCN(C)C)CCN(Cc1c(C)noc1C)C2
cytotoxicity at 70.5 h: -2.08%

CN(C)CCN1CCCC12CCCN(Cc1ccoc1)C2 (stereo not drawn)
cytotoxicity at 70.5 h: 13.7%

CC(C)N1CCc2c(c(COc3cccnc3)nn2CC2CC2)C1
cytotoxicity at 70.5 h: -2.06%

Cc1nc(CN2CC[C@H]3[C@H]2CCN3c2ncccn2)cs1
cytotoxicity at 70.5 h: -5.71%

c1ccc(CN2CC[C@H]3[C@H]2CCN3c2ncccn2)nc1
cytotoxicity at 70.5 h: -5.09%

Source: ChEMBL document CHEMBL3507680, “University of Dundee, Gates Library screen for HepG2 cell viability”
